In brackets after ≈: the same amount, converted by molar mass. Several values for one entry are separate records, joined by “and”; a condition that tells them apart may be missing. Equal values may be shown once. Entries after “also recorded” stand apart in the source; their conditions may differ. Read-outs that look alike come from different tables or passages of the source. Marks after values point to notes of the source that are not given here.
How the values were obtained:
[1] = ref MedChemExpress, cited from earlier work; for solubility, DMSO: in DMSO; for solubility, H2O: in H2O
Rlig1-AMP [2] = molecular target: T1, Rlig1-AMP (Homo sapiens, UniProt Q8N999); experiment: FRET-based high-throughput screening of inhibitors for Rlig1-AMP; assay type: biochemical; settings: sheet HTS hits; for 1-D Distance: difference of raw data w/o and w enzyme; for Raw data [w Enyzm]: with enzyme; for Raw data [w/o Enzym]: without enzyme
T1 construct: made in house; host or cells: E. coli BL21 (DE3), pET15b-Rlig1

Rlig1-AMP [3] = molecular target: T1, Rlig1-AMP; experiment: Radioactive RNA ligation assay (hit validation, 10 µM test and IC50 determination); assay type: biochemical; settings: for IC50: n = 3
[4] = Cell viability assay of HEK293 cells treated with inhibitors and menadione; assay type: cell-based, human; settings: human, HEK293 cells, w/o Menadione; for viability at 7.5 µM: 7.5 µM compound; for viability at 15 µM: 15 µM compound; for viability at 30 µM: 30 µM compound; for viability at 60 µM: 60 µM compound
HEK293 cells [5] = experiment: as above; assay type: cell-based, human; settings: for Mean Diff, (Predicted (LS) mean diff,) w/o menadione - w menadione: 2 way ANOVA, Šídák's multiple comparisons test, normalised viability
HEK293 cells [6] = experiment: Cell viability assay of HEK293 cells treated with inhibitors (CellTiter-Glo)
in vitro = settings: human
[7] = log(inhibitor) vs. response, variable slope (four parameters)
[8] = 20240508 plate 012, DMSO Ko no Mendione = 100
[9] = 20240508 plate 013, DMSO Ko no Mendione = 100
[10] = 20240515 plate 014, DMSO Ko no Mendione = 100
[11] = 20240515 plate 015, DMSO Ko no Mendione = 100

T1 sequence (Q8N999 whole entry): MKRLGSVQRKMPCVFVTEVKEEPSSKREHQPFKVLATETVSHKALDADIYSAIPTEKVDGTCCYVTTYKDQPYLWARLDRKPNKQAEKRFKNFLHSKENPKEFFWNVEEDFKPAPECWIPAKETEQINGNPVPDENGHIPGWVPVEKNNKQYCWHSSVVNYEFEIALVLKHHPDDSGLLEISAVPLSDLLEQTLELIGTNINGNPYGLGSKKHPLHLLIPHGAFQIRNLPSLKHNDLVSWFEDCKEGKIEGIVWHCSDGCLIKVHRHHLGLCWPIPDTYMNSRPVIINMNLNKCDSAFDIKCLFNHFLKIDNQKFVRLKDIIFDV

## COC(=O)c1cc(OC)c2c(c1-c1c(C(=O)OC)cc(OC)c3c1OCO3)OCO2 [Bifendate]
[1]
  solubility, DMSO: 50 mg/mL (≈ 120 mM)
  solubility, H2O: 1 mg/mL (≈ 2.39 mM)
Rlig1-AMP [2]
  1-D Distance: 1790
  Raw data [w Enyzm]: 9076
  Raw data [w/o Enzym]: 10866

## [N-]=[N+]=NCCOCCOCCOCCN(CCOCCOCCN)CCOCCOCCOCCN=[N+]=[N-] [N-(Amino-PEG2)-N-bis(PEG3-azide)]
[1]
  solubility, DMSO: DMSO : 100 mg/mL (181.60 mM; Need ultrasonic)
Rlig1-AMP [2]; MedChemExpress library
  1-D Distance.npi: 72.3118
Rlig1-AMP [2]
  1-D Distance: 1919
  Raw data [w Enyzm]: 9036
  Raw data [w/o Enzym]: 10955

## CO[C@H]1/C=C/O[C@@]2(C)Oc3c(C)c(O)c4c(O)c(c(/C=N/N5CCN(C6CCCC6)CC5)c(O)c4c3C2=O)NC(=O)/C(C)=C\C=C\[C@H](C)[C@H](O)[C@@H](C)[C@@H](O)[C@@H](C)[C@H](OC(C)=O)[C@@H]1C [Rifapentine]
[1]
  solubility, DMSO: ≥ 50 mg/mL
  solubility, H2O: < 0.1 mg/mL
Rlig1-AMP [2]
  1-D Distance: 1003
  Raw data [w Enyzm]: 7400
  Raw data [w/o Enzym]: 6397

## CCCCCCCCCCCCCCCC[n+]1ccccc1.[Cl-] [Cetylpyridinium (chloride)]
[1]
  solubility, DMSO: DMSO : 100 mg/mL (294.13 mM; Need ultrasonic); H2O : 100 mg/mL (294.13 mM; Need ultrasonic)
  solubility, H2O: DMSO : 100 mg/mL (294.13 mM; Need ultrasonic); H2O : 100 mg/mL (294.13 mM; Need ultrasonic)

## Cc1cc(Nc2ccc(NC(=O)c3ccc(Nc4ncnc5ccccc45)cc3)cc2)nc(N)n1 [Compound 45]
Rlig1-AMP [3]; 10 μM compound, 500 nM Rlig1-AMP, 20 min 37 °C
  inhibition of Rlig1-AMP ligation (urea-PAGE): Ligation was inhibited; also recorded: inhibited ligase activity
Rlig1-AMP [3]; four-parameter fit
  HillSlope (best-fit value): 4.095
  Span (best-fit value): 90.88
Rlig1-AMP [3]; four-parameter fit, read-out: IC50 (best-fit value)
  IC50: 7.02 µM
Rlig1-AMP [3]; log Compound [µM] 1.47712, replicates I-III, read-out: percentage inhibition (dose response curve for IC50)
  inhibition at 30 µM: 100%
Rlig1-AMP [3]; log of µM, four-parameter fit
  LogIC50 (best-fit value): 0.8461
Rlig1-AMP [3]; [7]
  Bottom (best-fit value): 7.303
  Top (best-fit value): 98.18
Rlig1-AMP [3]; radioactive ligation assay, 500 nM Rlig1-AMP, 20 min 37 °C, read-out: IC50
  IC50: 7.02 µM
[4]; [8]
  viability at 7.5 µM: 99.2%
  viability at 15 µM: 95.2%
  viability at 30 µM: 80.9%
[4]; [9]
  viability at 7.5 µM: 99.9%
  viability at 15 µM: 92.3%
  viability at 30 µM: 93.3%
[4]; [10]
  viability at 7.5 µM: 95.1%
  viability at 15 µM: 81.5%
  viability at 30 µM: 67.5%
  viability at 60 µM: 61.3%
[4]; [11]
  viability at 7.5 µM: 102%
  viability at 15 µM: 84.3%
  viability at 30 µM: 77.5%
  viability at 60 µM: 65.6%
HEK293 cells [5]; 7.5 µM compound
  Mean Diff, (Predicted (LS) mean diff,) w/o menadione - w menadione: 24.88
HEK293 cells [5]; 7.5 µM compound, w Menadione (40µM), 20240508 plate 012
  Cell viability raw signal, technical replicates: 16292 and 19945 and 19668 and 21930
HEK293 cells [5]; 7.5 µM compound, w Menadione (40µM), 20240508 plate 013
  Cell viability raw signal, technical replicates: 13213 and 13818 and 17967 and 18789
HEK293 cells [5]; 7.5 µM compound, w Menadione (40µM), 20240515 plate 014
  Cell viability raw signal, technical replicates: 24555 and 24471 and 26313 and 33654
HEK293 cells [5]; 7.5 µM compound, w Menadione (40µM), 20240515 plate 015
  Cell viability raw signal, technical replicates: 35092 and 33991 and 36306 and 39027
HEK293 cells [5]; 7.5 µM compound, w/o Menadione, 20240508 plate 012
  Cell viability raw signal, technical replicates: 424180 and 398710 and 420300 and 419520
HEK293 cells [5]; 7.5 µM compound, w/o Menadione, 20240508 plate 013
  Cell viability raw signal, technical replicates: 399000 and 385630 and 399650 and 394170
HEK293 cells [5]; 7.5 µM compound, w/o Menadione, 20240515 plate 014
  Cell viability raw signal, technical replicates: 359950 and 358800 and 374740 and 459430
HEK293 cells [5]; 7.5 µM compound, w/o Menadione, 20240515 plate 015
  Cell viability raw signal, technical replicates: 358750 and 400730 and 451820 and 450580
HEK293 cells [5]; 15 µM compound
  Mean Diff, (Predicted (LS) mean diff,) w/o menadione - w menadione: 16.86
HEK293 cells [5]; 15 µM compound, w Menadione (40µM), 20240508 plate 012
  Cell viability raw signal, technical replicates: 17222 and 18766 and 16741 and 22933
HEK293 cells [5]; 15 µM compound, w Menadione (40µM), 20240508 plate 013
  Cell viability raw signal, technical replicates: 19848 and 20626 and 16969 and 23253
HEK293 cells [5]; 15 µM compound, w Menadione (40µM), 20240515 plate 014
  Cell viability raw signal, technical replicates: 32272 and 27116 and 27955 and 28425
HEK293 cells [5]; 15 µM compound, w Menadione (40µM), 20240515 plate 015
  Cell viability raw signal, technical replicates: 25226 and 26073 and 29252 and 24387
HEK293 cells [5]; 15 µM compound, w/o Menadione, 20240508 plate 012
  Cell viability raw signal, technical replicates: 374870 and 367440 and 401070 and 451770
HEK293 cells [5]; 30 µM compound
  Mean Diff, (Predicted (LS) mean diff,) w/o menadione - w menadione: 21.74
HEK293 cells [5]; 30 µM compound, w Menadione (40µM), 20240508 plate 012
  Cell viability raw signal, technical replicates: 97659* and 121480* and 17759 and 18485
HEK293 cells [5]; 30 µM compound, w Menadione (40µM), 20240508 plate 013
  Cell viability raw signal, technical replicates: 90653* and 101750* and 11751 and 20016
HEK293 cells [5]; 30 µM compound, w Menadione (40µM), 20240515 plate 014
  Cell viability raw signal, technical replicates: 23460 and 20263 and 23532 and 25800
HEK293 cells [5]; 30 µM compound, w Menadione (40µM), 20240515 plate 015
  Cell viability raw signal, technical replicates: 18936 and 15616 and 21631 and 19990
HEK293 cells [5]; 30 µM compound, w/o Menadione, 20240508 plate 012
  Cell viability raw signal, technical replicates: 326400 and 344550 and 324690 and 360730
HEK293 cells [5]; 30 µM compound, w/o Menadione, 20240508 plate 013
  Cell viability raw signal, technical replicates: 380950 and 384250 and 337920 and 371050
HEK293 cells [5]; 30 µM compound, w/o Menadione, 20240515 plate 014
  Cell viability raw signal, technical replicates: 277620 and 270780 and 277750 and 275770
HEK293 cells [5]; 30 µM compound, w/o Menadione, 20240515 plate 015
  Cell viability raw signal, technical replicates: 297120 and 296520 and 307370 and 366230
HEK293 cells [5]; 60 µM compound
  Mean Diff, (Predicted (LS) mean diff,) w/o menadione - w menadione: 16.46
HEK293 cells [5]; 60 µM compound, w Menadione (40µM), 20240515 plate 014
  Cell viability raw signal, technical replicates: 18908 and 18178 and 17095 and 16101
HEK293 cells [5]; 60 µM compound, w Menadione (40µM), 20240515 plate 015
  Cell viability raw signal, technical replicates: 15825 and 18398 and 15296 and 15572
HEK293 cells [5]; 60 µM compound, w/o Menadione, 20240515 plate 014
  Cell viability raw signal, technical replicates: 265840 and 239610 and 250590 and 244440
HEK293 cells [5]; 60 µM compound, w/o Menadione, 20240515 plate 015
  Cell viability raw signal, technical replicates: 267940 and 266670 and 268950 and 268790
HEK293 cells [6]; HEK293, 24 h, up to 30 μM
  cytotoxicity (in words): no detectable cytotoxicity
HEK293 cells [6]; HEK293 cell viability, fit per plate (3 plates, 4 technical replicates each), highest tested concentration 30 µM
  IC50 (Figure 3D: EC50 values for plot; log(inhibitor) vs. response -- Variable slope (four parameters)): 336.896 µM and 119.897 µM and 368.238 µM
HEK293 cells [6]; HEK293 cell viability, fit per plate (3 plates, 4 technical replicates each), log of [µM]
  LogIC50 (log(inhibitor) vs. response -- Variable slope (four parameters)): 2.5275 and 2.079 and 2.566
HEK293 cells [6]; Homo sapiens, HEK293, 24 h
  EC50: > 30 µM
In vitro
  viability at 24 h, 0.234375 µM: 110%
  viability at 24 h, 0.46875 µM: 101%
  viability at 24 h, 0.9375 µM: 105%
  viability at 24 h, 1.875 µM: 100%
  viability at 24 h, 3.75 µM: 103%
  viability at 24 h, 7.5 µM: 97.1%
  viability at 24 h, 15 µM: 90.2%
  viability at 24 h, 30 µM: 88.8%

## CCCCCCCCCCCCCCCC[n+]1ccccc1.O.[Cl-] [Cetylpyridinium (chloride monohydrate)]
[1]
  solubility, DMSO: 20 mg/mL
  solubility, H2O: ≥ 100 mg/mL

— article PMC11747885, “Potent inhibitors of the human RNA ligase Rlig1 highlights its role in RNA integrity maintenance under oxidative cellular stress” (Chemical Science, 2025)
